Read-outs that look alike come from different tables or passages of the source.
Tests used:
HBV = HBV Infection in HepG2-NTCP Cells (HBeAg AlphaLISA); format: cell-based; details: Hepatitis B virus, 192 h
Description: HepG2-NTCP A3 cells were maintained in DMEM media supplemented with GlutaMAX™, 10% fetal bovine serum, 1% penicillin/streptomycin, and 5 μg/mL puromycin at 37° C. in a humidified atmosphere with 5% CO2 in a collagen-coated tissue culture flask.
HepG2-NTCP cells were seeded in 384 well plate containing 16,000 cells/well two days prior to the infection. On the day of infection, compounds were 3-fold serially diluted in DMSO and pre-incubated with HepG2-NTCP cells for two hours before purified HBV addition. HBV infection was carried out at 2000 GE/cell with 4% PEG, and the final concentration of DMSO is 0.5%. On day one post infection, HBV-containing media was aspirated, cells were washed once with PBS and then maintained in 2.5% DMSO containing media for the remainder of the assay.
Supernatants from infected HepG2-NTCP cells were collected at day 8 post infection, and the amount of viral antigen HBeAg was measured by HBeAg AlphaLISA detection kit (PerkinElmer) following the manufacturer's recommended protocol. Irrespective of readout, compound concentrations that reduce viral product accumulation in supernatants by 50% relative to DMSO controls (EC50) are reported. EC50 ranges are as follows: A<0.1 μM; B 0.1-1 μM; C>1 μM. A dash (-) indicates the compound was not tested.

NTCP = target: T1, NTCP (Homo sapiens, UniProt Q14973); assay: HepG2-NTCP preS1 Binding Competition Assay; details: HepG2-NTCP cells pre-treated 2 hours, FITC-labeled myristoylated preS1 peptide co-incubated 30 minutes, cell-surface fluorescence; read-out: Cellular EC50
T1 construct: expressed in transfected cells; host or cells: HepG2-NTCP (A3 clone, kept under puromycin)
T1 sequence (Q14973 1-349): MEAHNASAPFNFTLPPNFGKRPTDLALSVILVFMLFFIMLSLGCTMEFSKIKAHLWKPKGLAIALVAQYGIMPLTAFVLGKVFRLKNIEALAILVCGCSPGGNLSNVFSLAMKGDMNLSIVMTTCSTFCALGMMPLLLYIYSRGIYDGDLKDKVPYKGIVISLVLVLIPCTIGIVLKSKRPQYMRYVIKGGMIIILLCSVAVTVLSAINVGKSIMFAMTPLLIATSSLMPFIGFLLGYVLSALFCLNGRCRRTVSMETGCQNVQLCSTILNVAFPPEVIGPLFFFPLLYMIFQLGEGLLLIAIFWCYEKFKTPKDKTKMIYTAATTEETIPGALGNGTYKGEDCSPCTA
Description: Myristoylated preS1 peptide (2-48 aa) conjugated to a C-terminal FITC tag was synthesized to evaluate preS1 binding to NTCP-expressing cells. HepG2-NTCP cells seeded in 384-wells were pre-treated with compounds for 2 hours prior to the addition of FITC-labeled preS1 peptide. After co-incubation for 30 minutes, unbound FITC-preS1 peptide was washed twice with PBS, and the fluorescence of preS1-FITC bound to cell surface was detected by Envision plate reader. EC50 ranges are as follows: A<0.1 μM; B 0.1-1 μM; C>1 μM. A dash (-) indicates the compound was not tested.

| EC50 (NTCP) [nM] | EC50 (HBV; HBV-infected HepG2-NTCP cells, HBeAg in supernatants at day 8 post infection, 50% reduction relative to DMSO controls, read-out: Cellular EC50) [µM] | SMILES | EC50 (HBV; read-out: Cellular EC50 (μM)) [µM] |
| --- | --- | --- | --- |
| 100 to 1000 |  | CCCCCOC(=O)N[C@H](CCc1cc2c(cc1Cl)N(c1ccccc1)C[C@@H](C1CCCCC1)N(C)S2(=O)=O)C(=O)O [Example 17] |  |
| 100 to 1000 |  | CCOC(=O)N[C@@H](CCc1cc2c(cc1Cl)N(c1ccccc1)C[C@@H](C1CCCCC1)N(C)S2(=O)=O)C(=O)O [Example 18] |  |
| 100 to 1000 |  | CCOC(=O)N[C@H](CCc1cc2c(cc1Cl)N(c1ccccc1)C[C@@H](C1CCCCC1)N(C)S2(=O)=O)C(=O)O [Example 19] |  |
| 100 to 1000 |  | CCCCCCCCCOC(=O)N[C@@H](CCc1cc2c(cc1Cl)N(c1ccccc1)C[C@@H](C1CCCCC1)N(C)S2(=O)=O)C(=O)O [Example 20] |  |
| 100 to 1000 |  | CCCCCCCCCOC(=O)N[C@H](CCc1cc2c(cc1Cl)N(c1ccccc1)C[C@@H](C1CCCCC1)N(C)S2(=O)=O)C(=O)O [Example 21] |  |
| 100 to 1000 |  | CN1[C@H](C2CCCCC2)CN(c2ccccc2)c2cc(Cl)c(CC[C@@H](NC(=O)OCc3ccccc3)C(=O)O)cc2S1(=O)=O [Example 23] |  |
| 100 to 1000 |  | CN1[C@H](C2CCCCC2)CN(c2ccccc2)c2cc(Cl)c(CC[C@@H](NC(=O)N3CCCCC3)C(=O)O)cc2S1(=O)=O [Example 24, (R)-4-((R)-7-chloro-3-cyclohexyl-2-methyl-1,1-dioxido-5-phenyl-2,3,4,5-tetrahydrobenzo[f][1,2,5]thiadiazepin-8-yl)-2-(piperidine-1-carboxamido)butanoic acid] |  |
| 100 to 1000 |  | CCN(C)C(=O)N[C@H](CCc1cc2c(cc1Cl)N(c1ccccc1)C[C@@H](C1CCCCC1)N(C)S2(=O)=O)C(=O)O [Example 25, (R)-4-((R)-7-chloro-3-cyclohexyl-2-methyl-1,1-dioxido-5-phenyl-2,3,4,5-tetrahydrobenzo[f][1,2,5]thiadiazepin-8-yl)-2-(3-ethyl-3-methylureido)butanoic acid] |  |
| 100 to 1000 |  | CCN(C)C(=O)N[C@@H](CCc1cc2c(cc1Cl)N(c1ccccc1)C[C@@H](C1CCCCC1)N(C)S2(=O)=O)C(=O)O [Example 26] |  |
| 100 to 1000 |  | CN1[C@H](C2CCCCC2)CN(c2ccccc2)c2cc(Cl)c(CC[C@H](NC(=O)N3CCCCC3)C(=O)O)cc2S1(=O)=O [Example 27] |  |
| 100 to 1000 |  | CC(C)CS(=O)(=O)N[C@@H](CCc1cc2c(cc1Cl)N(c1ccccc1)C[C@@H](C1CCCCC1)N(C)S2(=O)=O)C(=O)O [Example 28, (S)-4-((R)-7-chloro-3-cyclohexyl-2-methyl-1,1-dioxido-5-phenyl-2,3,4,5-tetrahydrobenzo[f][1,2,5]thiadiazepin-8-yl)-2-((2-methylpropyl)sulfonamido)butanoic acid] |  |
| 100 to 1000 |  | CN1[C@H](C2CCCCC2)CN(c2ccccc2)c2cc(Cl)c(CC[C@H](NC(=O)C(=O)N3CCCC3)C(=O)O)cc2S1(=O)=O [Example 35] |  |
| 100 to 1000 |  | CCCCCC(=O)N[C@@H](CCc1cc2c(cc1Cl)N(c1ccccc1)C[C@@H](C1CCCCC1)N(C)S2(=O)=O)C(=O)O [Example 36, (S)-4-((R)-7-chloro-3-cyclohexyl-2-methyl-1,1-dioxido-5-phenyl-2,3,4,5-tetrahydrobenzo[f][1,2,5]thiadiazepin-8-yl)-2-hexanamidobutanoic acid] |  |
|  | 0.1 to 1 | CN1[C@H](C2CCCCC2)CN(c2ccccc2)c2cc(Cl)c(OCC(C)(C)C(=O)O)cc2S1(=O)=O [Example 38, (R)-3-((7-chloro-3-cyclohexyl-2-methyl-1,1-dioxido-5-phenyl-2,3,4,5-tetrahydrobenzo[f][1,2,5]thiadiazepin-8-yl)oxy)-2,2-dimethylpropanoic acid] |  |
| > 1000 |  | CNc1cc2c(cc1C(=O)NC1(C(=O)O)CC1)S(=O)(=O)N(C)[C@H](C1CCCCC1)CN2c1ccccc1 [Example 42] |  |
| 100 to 1000 |  | CNc1cc2c(cc1C(=O)NC(C)(C)C(=O)O)S(=O)(=O)N(C)[C@H](C1CCCCC1)CN2c1ccccc1 [Example 43] |  |
| > 1000 |  | CNc1cc2c(cc1C(=O)N[C@H](C(=O)O)C1CCOCC1)S(=O)(=O)N(C)[C@H](C1CCCCC1)CN2c1ccccc1 [Example 44] |  |
| 100 to 1000 |  | CNc1cc2c(cc1C(=O)N[C@@H](C(=O)O)c1cccc(Cl)c1)S(=O)(=O)N(C)[C@H](C1CCCCC1)CN2c1ccccc1 [Example 46] |  |

Continued, molecule first:

| SMILES | EC50 (NTCP) [nM] | EC50 (HBV; HBV-infected HepG2-NTCP cells, HBeAg in supernatants at day 8 post infection, 50% reduction relative to DMSO controls, read-out: Cellular EC50) [µM] | EC50 (HBV; read-out: Cellular EC50 (μM)) [µM] |
| --- | --- | --- | --- |
| CN1[C@H](C2CCCCC2)CN(c2ccccc2)c2cc(Cl)c(C#CC(C)(C)C(=O)O)cc2S1(=O)=O [Example 1, (R)-4-(7-chloro-3-cyclohexyl-2-methyl-1,1-dioxido-5-phenyl-2,3,4,5-tetrahydrobenzo[f][1,2,5]thiadiazepin-8-yl)-2,2-dimethylbut-3-ynoic acid] | < 100 |  | < 0.1 |
| CN1[C@H](C2CCCCC2)CN(c2ccccc2)c2cc(Cl)c(CCC(C)(C)C(=O)O)cc2S1(=O)=O [Example 2, (R)-4-(7-chloro-3-cyclohexyl-2-methyl-1,1-dioxido-5-phenyl-2,3,4,5-tetrahydrobenzo[f][1,2,5]thiadiazepin-8-yl)-2,2-dimethylbutanoic acid] | < 100 |  | < 0.1 |
| CN1[C@H](C2CCCCC2)CN(C2CCCCC2)c2ccc(CCC(C)(C)C(=O)O)cc2S1(=O)=O [Example 3, (R)-4-(3,5-dicyclohexyl-2-methyl-1,1-dioxido-2,3,4,5-tetrahydrobenzo[f][1,2,5]thiadiazepin-8-yl)-2,2-dimethylbutanoic acid] | < 100 |  | 0.1 to 1 |
| CN1[C@H](C2CCCCC2)CN(C2CCCCC2)c2cc(Cl)c(CCC(C)(C)C(=O)O)cc2S1(=O)=O [Example 4, (R)-4-(7-chloro-3,5-dicyclohexyl-2-methyl-1,1-dioxido-2,3,4,5-tetrahydrobenzo[f][1,2,5]thiadiazepin-8-yl)-2,2-dimethylbutanoic acid] | < 100 |  | 0.1 to 1 |
| CN1[C@H](C2CCCCC2)CN(c2ccccc2)c2cc(Cl)c(C#CC3(C(=O)O)CC3)cc2S1(=O)=O [Example 5] | 100 to 1000 |  | < 0.1 |
| CN1[C@H](C2CCCCC2)CN(c2ccccc2)c2cc(Cl)c(CCC3(C(=O)O)CC3)cc2S1(=O)=O [Example 6] | 100 to 1000 |  | < 0.1 |
| CN1[C@H](C2CCCCC2)CN(c2ccccc2)c2cc(F)c(CCCC(=O)O)cc2S1(=O)=O [Example 7] | 100 to 1000 |  | 0.1 to 1 |
| CN1[C@H](C2CCCCC2)CN(C2CCCCC2)c2cc(Cl)c(/C=C/C(C)(C)C(=O)O)cc2S1(=O)=O [Example 10, (R,E)-4-(7-chloro-3,5-dicyclohexyl-2-methyl-1,1-dioxido-2,3,4,5-tetrahydrobenzo[f][1,2,5]thiadiazepin-8-yl)-2,2-dimethylbut-3-enoic acid] | 100 to 1000 |  |  |
| CC(C)Oc1cccc(COc2cc3c(cc2C#CC2(C(=O)O)CC2)S(=O)(=O)N(C)[C@H](C2CCCCC2)CN3c2ccccc2)c1 [Example 11, (R)-1-((3-cyclohexyl-7-((3-isopropoxybenzyl)oxy)-2-methyl-1,1-dioxido-5-phenyl-2,3,4,5-tetrahydrobenzo[f][1,2,5]thiadiazepin-8-yl)ethynyl)cyclopropane-1-carboxylic acid] | 100 to 1000 |  | < 0.1 |
| CN1[C@H](C2CCCCC2)CN(c2ccccc2)c2cc(Cl)c(CC[C@H](NC(=O)OC(C)(C)C)C(=O)O)cc2S1(=O)=O [Example 12, (S)-2-((tert-butoxycarbonyl)amino)-4-((R)-7-chloro-3-cyclohexyl-2-methyl-1,1-dioxido-5-phenyl-2,3,4,5-tetrahydrobenzo[f][1,2,5]thiadiazepin-8-yl)butanoic acid] | < 100 |  | < 0.1 |
| CN1[C@H](C2CCCCC2)CN(c2ccccc2)c2cc(Cl)c(CC[C@@H](NC(=O)OC(C)(C)C)C(=O)O)cc2S1(=O)=O [Example 13] | < 100 |  | < 0.1 |
| CC(C)COC(=O)N[C@@H](CCc1cc2c(cc1Cl)N(c1ccccc1)C[C@@H](C1CCCCC1)N(C)S2(=O)=O)C(=O)O [Example 14, (S)-4-((R)-7-chloro-3-cyclohexyl-2-methyl-1,1-dioxido-5-phenyl-2,3,4,5-tetrahydrobenzo[f][1,2,5]thiadiazepin-8-yl)-2-((isobutoxycarbonyl)amino)butanoic acid] | 100 to 1000 |  | < 0.1 |

Reference: patent US20250304542A1, “Fused Heterobicyclic Antiviral Agents” (Enanta Pharmaceuticals, Inc., priority 2024, published 2025)
